{"source": "patent US7745465B2", "about": "“Method of enhancing cellular production of molecular chaperone, hydroxylamine derivatives useful for enhancing the chaperone production and the preparation thereof” (CytRx Corporation, priority 1995, dated 2010)", "key": {"Male Sprague-Dawley rats": {"system": "Male Sprague-Dawley rats", "assay": "Protection against cardiac ischaemia: survival after 5 minutes coronary occlusion and reperfusion", "type": "in vivo, rat", "conditions": "i.v. 1 mg/kgbw, 5 min. before the occlusion; non-treated control 10", "method": "Male Sprague-Dawley rats (380-450 g b.w.) were anaesthetized with sodiumpentobarbital (Nembutal 60 mg/kg body weight, i.p.) and artificially ventilated with room air (2 ml/100 g; 54 stroke/minutes) via tracheotomy. The right carotid artery was catheterized and connected to a pressure transducer (BPR-01, Stoelting) for the measurement of systemic arterial blood pressure (BP) by means of a preamplifier (Hg-02, Experimetria). Hydroxylamine derivatives disclosed in Example 5 were administered via the venous cannule to jugular vein (i.v.) and orally (p.o.). Heart rate (HR) was measured by a cardiotachometer (HR-01, Experimetria). The electrocardiogram (ECG standard lead II) was recorded on a devices recorder (MR-12, Medicor) by means of subcutaneous steel needles electrodes. The chest was opened by a left thoracotomy and the heart was exteriorized by a gentle pressure on the right side of the rib cage. A 4-0 silk suture was quickly placed under the main left coronary artery as described by Selye et al. (1960). The heart was carefully replaced in the chest and the animal left to recover. Rectal temperature was monitored and kept constant at 37 C. The experimental protocol was initiated with a 15 minute stabilization period during which the observation of a sustained blood pressure less than 70 mmHg and or the occurrence of anhythmia led to exclusion. Myocardial ischemia was induced with coronary occlusion for 5 minutes and reperfusion allowed for 10 minutes.\nDuring the entire experiment BP, HR and ECG were continuously registered on a multiscriptor (R61-6CH, Medicor). Hydroxylamine derivatives, the tautomeric forms of which are represented by structures (I) and (II), were administered 5 to 60 minutes before the occlusion after i.v. and p.o. treatment, respectively. […]\nThe mean duration of ventricular tachycardia (VT) and/or ventricular fibrillation (VF) during the first 3 minutes of reperfusion was analyzed by one-way analysis of variance. The incidence of VF was analyzed using a chi-square test. […] The haemodynamic variables were analyzed using Student's “t”-test. The critical level of significance was set at p<0.05. All results were expressed as a means±S.E.M. Drugs were administered i.v. in a dose of 1 mg/kgbw 5 min. before the occlusion.\nThe hydroxylamine derivatives that are found to be particularly advantageous for protecting an animal against ischemic/reperfusion injury are listed below. Survival (%) indicates the percent of animals survived the effects of 5 minutes coronary occlusion."}, "[1]": {"system": "Rats with genetic hypertension", "assay": "Morphological examination of the thoracic aorta of rats with genetic hypertension", "type": "in vivo, rat", "conditions": "daily oral treatment (20 mg/kg 8 days or 5 mg/kg 20 days)", "method": "Rats with genetic hypertension were divided into four groups of four. The groups were treated daily, orally, the first group with physiological saline, the second group with N-[2-hydroxy-3-(1-piperidinyl)]-propoxy-3-pyridine-carboximidoyl-chloride maleate (20 mg/kg) for 8 days, the third group with N-[2-hydroxy-3-(1-piperidinyl)-propoxy]-benzimidoyl-chloride monohydrochloride (5 mg/kg) for 20 days and the fourth group with N-[2-hydroxy-3-(1-piperidinyl)-propoxy]-2-thiophenecarboximidoyl-chloride monohydrochloride (5 mg/kg) for 20 days. Animals were sacrificed, aortas were isolated, snap frozen in liquid nitrogen and were stored at −70° C. till they were used.\nThe examination was performed according to published methods (Br. J. of Pharmacol., 1995; 115, […]). A 1 mm^2 area of the thoracic aorta was excised and fixed in 2.5% glutaral-dehyde at room temperature. Post fixation was performed in 1% osmium-tetroxide for one hour. The tissue was dehydrated in ethanol and was embedded in Durcupan ACM. Pictures were taken by a Hitachi 7100 electronmicroscope and were evaluated qualitatively."}, "HSP72 [2]": {"system": "HSP72", "assay": "Heat stress induced HSP72 production in 3T3 cells", "type": "cell-based, mouse", "conditions": "10^−5 M", "procedure,_shortened": "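Mouse 3T3 fibroblasts in MEM monolayer were heat-stressed 30 min at 43° C, with test compounds at 10^−5 M given 15 min before or 100 min after stress. HSP72 detected by immunoblot with SPA 810 primary and HRP secondary antibodies, quantified by densitometry.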"}, "Hsp72 [3]": {"system": "Hsp72", "assay": "Heat stress induced hsp72 expression in rat spleen explant", "type": "cell-based", "conditions": "10^−5 M, 15 min. before 43° C. 30 min.", "method": "These experiments were performed on rat spleen and testicular tissue explants applying heat stress after treatment with the experimental compounds. Experiments on spleen suspension were carried out as follows.\nSpleens of CFY rats weighing 200 g were removed aseptically, and were homogenized in 10% fetal bovine serum containing MEM culture medium. The concentration of the cell suspension was adjusted to 50-100 mg/5 ml.\nFive ml cell suspension was given into each of the culture dishes of 6 cm of diameter and the explants were incubated for one hour in a 5% CO2 containing humidified air at 37° C. then cultures were treated with the 10^−5 M concentration of the test compounds. After further 15 min. incubation at 37° C. the cultures were exposed to heat shock at 43° C. for 30 min. in an incubator. The amount of the induced hsp72 was measured after a further 6 hours incubation at 37° C."}, "Hsp72 [4]": {"system": "Hsp72", "assay": "Heat stress induced hsp72 expression in rat testicular explant", "type": "cell-based", "conditions": "10^−5 M, 15 min. before 43° C. 30 min.", "method": "Testis of CFY rats weighing of 200 g were removed in sterile conditions and the released testicular tubuli were suspended in 10% fetal bovine serum containing MEM culture medium in that way that five ml suspension contained 50-100 mg tissue. The explants were incubated in 5% CO2 containing humidified air at 37° C. for one hour, then the cultures were treated with 10^−5 M concentration of the tested compounds. After a further incubation for 15 min. at 37° C., explants were exposed to heat shock at 43° C. for 30 min. The amount of the induced hsp72 was measured after a further 6 hours incubation at 37° C."}, "hsp72 [5]": {"system": "hsp72", "assay": "HgCl2 stress induced hsp72 level in HeLa cells", "type": "cell-based, human", "conditions": "10^−5 M, 0.5 μg/ml HgCl2, 6 hours", "method": "From the applied cells the 3T3 and L-929 mouse fibroblasts were cultured in MEM medium and grew in monolayer, the U-937 human leukemia cells were maintained in RPMI-1640 medium, in suspension culture, while the HeLa human epithelial cells were cultured in DMEM medium and in monolayer form. Cell cultures were maintained as described in example 6.2 (a) with the difference that cells were cultured in the above mentioned culture mediums.\nExperiments were carried out applying stress before and after the drug treatment. Stress was provoked by heat, by chemical agent, HgCl2 treatment. The test compounds were applied in the treatments at the 10^−5 M concentration.\nThese experiments were performed on HeLa, human epithelial and U-937, human leukemia cells using HgCl2 to induce stress response. Drug treatment was carried out before cells were exposed to the stress. Test cultures were prepared and treatments were performed as in the experiments with the 3T3 cells. After the drug treatment cells were incubated at 37° C. for 15 min. than all the cultures except two (non stressed control) were exposed to 0.5 μg/ml concentration of HgCl2 and the incubation was followed. The induced amount of hsp72 was measured 6 hours after the exposure to stress."}, "[6]": {"conditions": "treatment 15 min. before 30 min. 43° C. heat stress"}, "[7]": {"conditions": "treatment 100 min. after 30 min. 43° C. heat stress"}}, "data": [{"smiles": "Cl.OC(CON=C(Cl)c1cccs1)CN1CCCCC1", "note": "(centres unmarked) [Example 1, N-[2-hydroxy-3-(1-piperidinyl)propoxyl]-2-thiophenecarboximidoyl chloride monohydrochloride]", "values": [{"measurement": "Survival (%)", "setting": "Male Sprague-Dawley rats", "result": 100, "unit": "%"}, {"measurement": "regeneration of the cells of aorta", "setting": "[1]", "result": "facilitated the regeneration of the cells of aorta"}]}, {"smiles": "c1cncc(C2=NOCC(CN3CCCCC3)N2)c1", "note": "(centres unmarked) [Example 64, 5,6-Dihydro-5-(1-piperidinyl)methyl-3-(3-pyridyl)-4H-1,2,4-oxadiazine]", "values": [{"measurement": "Survival (%)", "setting": "Male Sprague-Dawley rats", "result": 100, "unit": "%"}, {"measurement": "HSP72 level relative to the stress exposed control", "setting": "HSP72 [2]; [6]", "result": "+++ (>100%)"}, {"measurement": "HSP72 level relative to the stress exposed control", "setting": "HSP72 [2]; [7]", "result": "0 (0 indicates that the treatment altered by ±20% the stress induced hsp72 level in the cells)"}, {"measurement": "Level of hsp72 relative to the stress exposed control", "setting": "Hsp72 [3]", "result": "0 (0 indicates that the treatment altered by ±20% the stress induced hsp72 level in the cells)"}, {"measurement": "Level of hsp72 relative to the stress exposed control", "setting": "Hsp72 [4]", "result": "+ +"}]}, {"smiles": "Cl.O=[N+]([O-])c1cccc(C(Cl)=NOCCCN2CCCCC2)c1", "note": "[Example 79, O-(3-piperidinopropyl)-3-nitro-benzhydroximyl chloride hydrochloride]", "values": [{"measurement": "Survival (%)", "setting": "Male Sprague-Dawley rats", "result": 100, "unit": "%"}, {"measurement": "HSP72 level relative to the stress exposed control", "setting": "HSP72 [2]; [6]", "result": "+++ (>100%)"}, {"measurement": "HSP72 level relative to the stress exposed control", "setting": "HSP72 [2]; [7]", "result": "+ (21-50%)"}, {"measurement": "increase of the stress induced hsp72 level", "setting": "hsp72 [5]", "result": "more than 50%"}, {"measurement": "Level of hsp72 relative to the stress exposed control", "setting": "Hsp72 [4]", "result": "+ +"}]}, {"smiles": "Cl.OC(CON=C(Cl)c1ccccc1)CN1CCCCC1", "note": "(centres unmarked) [N-[2-hydroxy-3-(1-piperidinyl)-propoxy]-benzimidoyl-chloride monohydrochloride]", "values": [{"measurement": "Survival (%)", "setting": "Male Sprague-Dawley rats", "result": 100, "unit": "%"}, {"measurement": "HSP72 level relative to the stress exposed control", "setting": "HSP72 [2]; [6]", "result": "+ (21-50%)"}, {"measurement": "increase of the stress induced hsp72 level", "setting": "hsp72 [5]", "result": "more than 20%"}, {"measurement": "Level of hsp72 relative to the stress exposed control", "setting": "Hsp72 [4]", "result": "+ + +"}, {"measurement": "regeneration of the cells of aorta", "setting": "[1]", "result": "facilitated the regeneration of the cells of aorta"}]}]}
